Data: US9181232B2, “Difluoro-hexahydro-cyclopentaoxazinyls and difluoro-hexahydro-benzooxazinyls as BACE1 inhibitors” (Hoffmann-La Roche Inc., priority 2012, dated 2015)

Legend:
[1] = molecular target: T1, BACE1 (Homo sapiens, UniProt P56817); test: Cellular Aβ-lowering assay (Aβ40 ELISA, HEK293 cells expressing human APP695); type: cell-based; details: HEK293 cells stably expressing human APP695; Aβ40 in supernatant after 18-20 hrs; read-out: BACE1 cell act. Aβ40 IC50
T1 construct: Human HEK293 cells which are stably transfected with a vector expressing a cDNA of the human APP wt gene (APP695); endogenous in cells; host or cells: HEK293 stably expressing human APP695 wt
Method: Human HEK293 cells which are stably transfected with a vector expressing a cDNA of the human APP wt gene (APP695) were used to assess the potency of the compounds in a cellular assay. The cells were seeded in 96-well microtiter plates in cell culture medium (Iscove, plus 10% (v/v) fetal bovine serum, glutamine, penicillin/streptomycin) to about 80% confluence and the compounds were added at a 10× concentration in 1/10 volume of medium without FCS containing 8% DMSO (final concentration of DMSO was kept at 0.8% v/v). After 18-20 hrs incubation at 37° C. and 5% CO2 in a humidified incubator the culture supernatant was harvested for the determination of Aβ40 concentrations. 96 well ELISA plates (e.g., Nunc MaxiSorb) were coated with monoclonal antibody which specifically recognize the C-terminal end of Aβ40^10. After blocking of non-specific binding sites with e.g. 1% BSA and washing, the culture supernatants were added in suitable dilutions together with a horseradish peroxidase-coupled Aβ detection antibody (e.g., antibody 4G8, Senetek, Maryland Heights, Mo.) and incubated for 5 to 7 hrs. Subsequently the wells of the microtiter plate were washed extensively with Tris-buffered saline containing 0.05% Tween 20 and the assay was developed with tetramethylbenzidine/H2O2 in citric acid buffer. After stopping the reaction with one volume 1 N H2SO4 the reaction was measured in an ELISA reader at 450 nm wavelength. The concentrations of Aβ in the culture supernatants were calculated from a standard curve obtained with known amounts of pure Aβ peptide.

[2] = molecular target: T2, recombinant human cathepsin E (Homo sapiens, UniProt P14091); test: Cathepsin E fluorescent substrate kinetic assay; type: biochemical; details: pH 4.5
T2 construct: purchased R&D Systems
T2 sequence (P14091 54-396): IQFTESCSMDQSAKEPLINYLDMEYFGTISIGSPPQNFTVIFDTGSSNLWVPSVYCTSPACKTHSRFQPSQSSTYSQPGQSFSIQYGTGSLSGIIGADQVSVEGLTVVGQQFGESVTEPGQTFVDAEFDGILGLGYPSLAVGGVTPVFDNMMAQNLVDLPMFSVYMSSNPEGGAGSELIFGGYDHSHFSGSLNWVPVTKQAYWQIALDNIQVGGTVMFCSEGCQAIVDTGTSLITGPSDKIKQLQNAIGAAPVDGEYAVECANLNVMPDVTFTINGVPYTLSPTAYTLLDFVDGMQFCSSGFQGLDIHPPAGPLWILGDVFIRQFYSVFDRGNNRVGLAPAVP
From the text: (§1) The MR121 fluorescence assays described below are based on the fact that MR121 forms a non-fluorescent ground state complex with tryptophan. In solution this formation occurs at millimolar concentrations of tryptophan. The mechanism can be used to design a generic biochemical assay for proteases. A substrate peptide is labeled at the N-terminus with tryptophan and at the C-terminus with the fluorophore MR121 (for cathepsin D the 10 amino acid peptide WTSVLMAAPC-MR121 was used; for cathepsin E, MR121-CKLVFFAEDW was used). In absence of protease activity, the substrates remain intact and the MR121 fluorescence is reduced by the high local Trp-concentration. If the substrates are cleaved by the enzymes the MR121 fluorescence is recovered.
(§2) The fluorescent substrate cathepsin D and cathepsin E kinetic assays were performed at room temperature in 384-well microtiter plates (black with clear flat bottom, non binding surface plates from Corning) in a final volume of 51 μl. The test compounds were serially diluted in DMSO (15 concentrations, 1/3 dilution steps) and 1 μl of diluted compounds were mixed for 10 min with 40 μl of cathepsin D (from human liver, Calbiochem) diluted in assay buffer (100 mM sodium acetate, 0.05% BSA, pH 5.5; final concentration: 200 nM) or with 40 μl of recombinant human cathepsin E (R&D Systems) diluted in assay buffer (100 mM sodium acetate, 0.05% BSA, pH 4.5; final concentration: 0.01 nM). After addition of 10 μl of the cathepsin D substrate WTSVLMAAPC-MR121 diluted in cathepsin D assay buffer (final concentration: 300 nM) or […] cathepsin E substrate MR121-CKLVFFAEDW diluted in cathepsin E assay buffer (final concentration: 300 nM), the plates were strongly shaken for 2 minutes. The enzymatic reaction was followed in a plate: vision reader (Perkin Elmer) (excitation wavelength: 630 nm; emission: 695 nm) for at least 30 minutes in a kinetic measurement detecting an increase of MR121 fluorescence during the reaction time. The slope in the linear range of the kinetic was calculated and the IC50 of the test compounds were determined using a four parameter equation for curve fitting.

[3] = molecular target: T3, cathepsin D (from human liver) (Homo sapiens, UniProt P07339); test: Cathepsin D fluorescent substrate kinetic assay; type: biochemical; details: pH 5.5
T3 construct: cathepsin D (from human liver, Calbiochem); purchased Calbiochem; host or cells: human liver (tissue-purified)
From the text: as §1, §2

[4] = molecular target: T4, CYP3A4 (Homo sapiens, UniProt P08684); test: CYP inhibition assay, human liver microsomes, midazolam; type: in vitro ADME; details: read-out: CYP IC50 3A4
T4 construct: 0.2 mg/ml pooled human liver microsomes; from tissue; host or cells: pooled human liver microsomes
Method: (§3) Inhibition of cytochromes P450 (CYPs) 2C9, 2D6 and 3A4 was assessed using human liver microsomes and CYP-selective substrate metabolism reactions. 50 μl incubations were made up containing (finally) 0.2 mg/ml pooled human liver microsomes, 5 μM substrate (diclofenac for CYP2C9 [4′hydroxylase], dextromethorphan for CYP2D6 [O-demethylase] or midazolam for CYP3A4 [1′hydroxylase]), 0.25 μL DMSO containing test inhibitor and NADPH regenerating system. Test inhibitor concentrations of 50, 16.7, 5.6, 1.9, 0.6 and 0.2 μM were assessed in singlicate. Incubations were prewarmed to 37° C. for 10 minutes before initiation by addition of NADPH regenerating system. Incubations were quenched after 5 minutes (20 minutes for dextromethorphan) by addition of 50 μl cold acetonitrile containing 20 ng/ml 4-OH-diclofenac-13C6, 20 ng/mL dextrorphan-D3 and 20 ng/mL 1-OH-midazolam-D4. Quenched incubates were stored at −20° C. for at least 1 hour before centrifugation (20,000×g, 20 minutes). Supernatants were removed and diluted 1:1 with water prior to analysis using a RapidFire sample injector system and API4000 mass spectrometer. Peak areas for substrate, metabolite and stable-labelled metabolite standard were determined using MS/MS. The peak area ratios between the metabolite generated by the enzymatic reaction and the internal standard were used in subsequent calculations. The percentage of (DMSO) control activity was calculated for each incubate and IC50 values estimated by non-linear regression. Sulfaphenazole, quinidine or ketoconazole were tested in each CYP2C9, CYP2D6 or CYP3A4 inhibition experiment, respectively, to ensure assay sensitivity and reproducibility. (Validated assays for human cytochrome P450 activities^11)

[5] = molecular target: T5, CYP2D6 (Homo sapiens, UniProt P10635); test: CYP inhibition assay, human liver microsomes, dextromethorphan; type: in vitro ADME; details: read-out: CYP IC50 2D6
T5 construct: 0.2 mg/ml pooled human liver microsomes; from tissue; host or cells: pooled human liver microsomes
Method: as §3

[6] = molecular target: T6, CYP2C9 (Homo sapiens, UniProt P11712); test: CYP inhibition assay, human liver microsomes, diclofenac; type: in vitro ADME; details: read-out: CYP IC50 2C9
T6 construct: 0.2 mg/ml pooled human liver microsomes; from tissue; host or cells: pooled human liver microsomes
Method: as §3

T1 sequence (P56817 46-501): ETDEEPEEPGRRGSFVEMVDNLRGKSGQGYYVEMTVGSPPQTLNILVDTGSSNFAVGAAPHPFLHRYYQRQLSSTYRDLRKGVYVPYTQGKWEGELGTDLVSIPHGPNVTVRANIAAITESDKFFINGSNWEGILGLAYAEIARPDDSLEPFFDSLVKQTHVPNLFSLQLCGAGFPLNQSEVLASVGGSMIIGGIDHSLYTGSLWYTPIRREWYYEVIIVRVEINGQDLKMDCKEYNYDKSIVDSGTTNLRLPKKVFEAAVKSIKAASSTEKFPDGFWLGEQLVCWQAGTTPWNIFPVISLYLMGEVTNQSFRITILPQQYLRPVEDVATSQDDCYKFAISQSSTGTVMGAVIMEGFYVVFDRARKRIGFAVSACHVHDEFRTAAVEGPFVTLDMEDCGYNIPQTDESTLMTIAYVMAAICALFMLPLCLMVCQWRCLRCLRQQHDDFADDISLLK
T3 sequence (P07339 65-162 limits assumed): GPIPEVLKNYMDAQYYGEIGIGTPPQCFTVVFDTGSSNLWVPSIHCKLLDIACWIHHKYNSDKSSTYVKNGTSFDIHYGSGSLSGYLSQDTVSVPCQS
T3 sequence (P07339 169-412 limits assumed): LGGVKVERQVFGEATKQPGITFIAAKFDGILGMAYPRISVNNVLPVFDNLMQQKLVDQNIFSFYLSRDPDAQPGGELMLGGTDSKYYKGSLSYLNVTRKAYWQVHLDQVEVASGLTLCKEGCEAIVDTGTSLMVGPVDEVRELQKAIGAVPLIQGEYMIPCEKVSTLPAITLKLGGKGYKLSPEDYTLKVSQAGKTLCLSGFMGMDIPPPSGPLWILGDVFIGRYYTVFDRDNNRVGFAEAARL
T5 sequence (P10635 whole entry): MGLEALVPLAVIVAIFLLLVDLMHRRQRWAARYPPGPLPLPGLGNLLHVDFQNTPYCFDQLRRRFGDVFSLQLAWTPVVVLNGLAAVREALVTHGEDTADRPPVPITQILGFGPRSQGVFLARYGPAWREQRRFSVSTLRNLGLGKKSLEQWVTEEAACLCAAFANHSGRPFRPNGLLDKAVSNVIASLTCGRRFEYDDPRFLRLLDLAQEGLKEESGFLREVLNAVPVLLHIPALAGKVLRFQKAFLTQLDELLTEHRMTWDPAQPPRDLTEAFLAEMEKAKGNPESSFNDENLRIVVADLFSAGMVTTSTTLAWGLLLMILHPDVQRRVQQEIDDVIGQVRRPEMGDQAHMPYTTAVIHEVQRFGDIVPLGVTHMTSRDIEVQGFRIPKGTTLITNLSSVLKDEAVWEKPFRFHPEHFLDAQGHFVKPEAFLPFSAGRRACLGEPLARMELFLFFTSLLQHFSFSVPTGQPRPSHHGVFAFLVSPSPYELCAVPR
T4 sequence (P08684 whole entry): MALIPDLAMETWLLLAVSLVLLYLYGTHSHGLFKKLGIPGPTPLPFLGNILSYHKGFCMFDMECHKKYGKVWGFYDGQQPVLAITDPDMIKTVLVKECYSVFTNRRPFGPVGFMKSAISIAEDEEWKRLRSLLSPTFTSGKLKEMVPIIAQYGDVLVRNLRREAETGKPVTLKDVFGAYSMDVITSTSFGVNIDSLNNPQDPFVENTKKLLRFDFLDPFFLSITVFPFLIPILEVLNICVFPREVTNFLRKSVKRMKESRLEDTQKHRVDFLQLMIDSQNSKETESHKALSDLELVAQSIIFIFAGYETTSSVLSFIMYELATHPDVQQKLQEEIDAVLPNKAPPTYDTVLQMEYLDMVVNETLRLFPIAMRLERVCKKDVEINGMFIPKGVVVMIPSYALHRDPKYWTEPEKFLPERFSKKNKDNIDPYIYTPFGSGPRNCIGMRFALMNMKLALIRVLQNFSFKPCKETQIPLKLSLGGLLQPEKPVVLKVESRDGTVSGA
T6 sequence (P11712 whole entry): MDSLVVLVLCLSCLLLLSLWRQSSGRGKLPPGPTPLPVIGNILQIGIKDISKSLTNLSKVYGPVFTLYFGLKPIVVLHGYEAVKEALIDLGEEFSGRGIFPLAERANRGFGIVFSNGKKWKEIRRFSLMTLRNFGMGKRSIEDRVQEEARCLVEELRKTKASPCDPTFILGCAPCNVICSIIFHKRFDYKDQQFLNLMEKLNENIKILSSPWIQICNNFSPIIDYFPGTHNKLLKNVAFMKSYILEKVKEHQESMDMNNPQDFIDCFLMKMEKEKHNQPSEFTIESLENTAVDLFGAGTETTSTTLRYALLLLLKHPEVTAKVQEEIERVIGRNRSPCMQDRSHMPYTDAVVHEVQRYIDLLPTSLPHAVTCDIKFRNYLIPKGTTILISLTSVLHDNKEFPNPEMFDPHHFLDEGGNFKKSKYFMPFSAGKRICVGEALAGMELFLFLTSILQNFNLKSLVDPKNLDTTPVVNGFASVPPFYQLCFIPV

Row | Compound | IC50 [1] | IC50 [2] | IC50 [3] | IC50 [4] | IC50 [5] | IC50 [6]
1 | C[C@]1(c2cc(NC(=O)c3cnc(CF)cn3)ccc2F)N=C(N)O[C@@H]2CCC(F)(F)[C@@H]21 [Example 5, 5-Fluoromethyl-pyrazine-2-carboxylic acid [3-((4S,4aR,7aR)-2-amino-5,5-difluoro-4-methyl-4,4a,5,6,7,7a-hexahydro-cyclopenta[e][1,3]oxazin-4-yl)-4-fluoro-phenyl]-amide] | 5.1 nM | – | – | – | – | –
2 | C[C@]1(c2cc(NC(=O)c3ccc(Cl)cn3)ccc2F)N=C(N)O[C@@H]2CCC(F)(F)[C@@H]21 [Example 3] | 1.9 nM | – | – | – | – | –
3 | CC(F)(F)c1cnc(C(=O)Nc2ccc(F)c([C@@]3(C)N=C(N)O[C@@H]4CCC(F)(F)[C@@H]43)c2)cn1 [Example 4, 5-(1,1-Difluoro-ethyl)-pyrazine-2-carboxylic acid [3-((4S,4aR,7aR)-2-amino-5,5-difluoro-4-methyl-4,4a,5,6,7,7a-hexahydro-cyclopenta[e][1,3]oxazin-4-yl)-4-fluoro-phenyl]-amide] | 8.9 nM | > 200000 nM | 183000 nM | – | – | –

Further lines, results first:

Row | IC50 [1] | IC50 [2] | IC50 [3] | IC50 [4] | IC50 [5] | IC50 [6] | Compound
4 | 4.9 nM | – | – | – | – | – | C[C@]1(c2cc(NC(=O)c3ccc(Cl)cn3)ccc2F)N=C(N)O[C@@H]2CCCC(F)(F)[C@@H]21 [Example 7, 5-Chloro-pyridine-2-carboxylic acid [3-((4S,4aR,8aR)-2-amino-5,5-difluoro-4-methyl-4a,5,6,7,8,8a-hexahydro-4H-benzo[e][1,3]oxazin-4-yl)-4-fluoro-phenyl]-amide]
5 | 350 nM | > 200000 nM | 105000 nM | > 10000 nM | 1000 to 10000 nM | 1000 to 10000 nM | C[C@]1(c2cc(NC(=O)c3ccc(Cl)s3)ccc2F)N=C(N)O[C@@H]2CCCC(F)(F)[C@@H]21 [Example 9, 5-Chloro-thiophene-2-carboxylic acid [3-((4S,4aR,8aR)-2-amino-5,5-difluoro-4-methyl-4a,5,6,7,8,8a-hexahydro-4H-benzo[e][1,3]oxazin-4-yl)-4-fluoro-phenyl]-amide]
6 | 5.5 nM | – | – | – | – | – | C[C@]1(c2cc(NC(=O)c3cnc(C#N)cn3)ccc2F)N=C(N)O[C@@H]2CCC(F)(F)[C@@H]21 [Example 6, 5-Cyano-pyrazine-2-carboxylic acid [3-((4S,4aR,7aR)-2-amino-5,5-difluoro-4-methyl-4,4a,5,6,7,7a-hexahydro-cyclopenta[e][1,3]oxazin-4-yl)-4-fluoro-phenyl]-amide]
